Assay results from US7964359B2, “Compositions and methods for the enhancement of soluble amyloid beta oligomer (ADDL) uptake and clearance” (Acumen Pharmaceuticals, Inc., priority 2006, dated 2011).

Legend:
[1] = tested on: Akt; test: Akt ser473 phosphorylation in cortical neurons; assay type: cell-based; settings: 6 hours
From the text: (§1) Equalized total amount of protein from soluble cell lysates were separated on SDS-PAGE, and pAkt ser473 detected on western blots with a specific antibody against pAkt ser473. Identical samples transferred to a separate membrane were detected with an anti-total Akt (rAkt) antibody for internal normalization. The normalized pAkt extent from each experimental condition was converted to percent control and analyzed with one-way ANOVA, **P<0.01.
(§2) In the presence ADDLs, however, there was an increase in pAkt ser473. […] To test whether inhibition of phosphatase 2A (PP2A) causes a similar enhancement of pAkt ser473, the cortical neurons were pre-treated with okadaic acid (OA), a potent PP2A/PP1 inhibitor at a concentration (10 nM) preferentially inhibiting PP2A.

[2] = tested on: cells over-expressing insulin receptor; test: ADDL uptake and clearance by cells over-expressing insulin receptor; assay type: cell-based
From the text: The amount of oligomeric Aβ peptide assemblies present in cell lysates and culture medium is presented.
Total ADDL levels were higher than other treatment conditions. […] In the presence of insulin, ADDLs were internalized and detected in the center of the intracellular compartment. In the presence of AG1024, the majority of ADDLs were retained in the extracellular compartment.

[3] = tested on: cultured cortical neurons; test: ADDL uptake in cultured cortical neurons (western blot of medium, immunoprecipitation of lysates); assay type: cell-based
Method: Primary cortical cultures were prepared from 1-day old pups and maintained in serum-free neurobasal A medium complemented with 2% B-27, […] L-glutamine and 5 μg/mL bFGF. Synthetic oligomeric Aβ peptide assemblies (100 nM) were applied to cultured cortical neurons and incubated at 37° C. for 30 minutes. […] After separation on SDS-PAGE, the precipitated oligomeric Aβ peptide assemblies were detected on western blots with 6E10 antibody. The bar graph (mean±SE) summarizes data from four independent replicated treatments.
(§3) ADDL Uptake and Clearance by Neurons Occurs Via Insulin Receptor Signaling. […] Extracellular ADDL levels were measured on western blots using a concentrated medium. […] On the other hand, the intracellular ADDLs were detected by immunoprecipitation (FIG. 2B). […] This uptake, however, was prevented by […] (FIG. 2B, lane 5, 6).

[4] = tested on: hippocampal neurons; test: ADDL uptake in hippocampal neurons; assay type: cell-based
Method: as §3

[5] = tested on: hippocampal neurons; test: MTT cell viability assay after ADDL/insulin treatment; assay type: cell-based
[6] = tested on: hippocampal neurons; test: ADDL binding to hippocampal neurons after insulin pre-incubation; assay type: cell-based; settings: for prevention of ADDL binding to hippocampal neurons: then 100 nM ADDLs
From the text: This possibility seems unlikely, however, given the abundance of insulin receptors in cell bodies of ADDL-exposed neurons.

[7] = target: T1, insulin receptor (Rattus norvegicus, UniProt P15127); test: Insulin receptor tyrosine phosphorylation in hippocampal neuronal cultures; assay type: cell-based; parameters: endogenous in cells; host or cells: rat primary hippocampal and cortical neuronal cultures; settings: for tyrosine phosphorylation of the insulin receptor: substance alone; for tyrosine phosphorylation of the insulin receptor / insulin-stimulated insulin receptor tyrosine phosphorylation: hippocampal neurons; for insulin-stimulated insulin receptor tyrosine phosphorylation: ADDLs with 100 nM insulin
T1 sequence (P15127 27-759 limits assumed): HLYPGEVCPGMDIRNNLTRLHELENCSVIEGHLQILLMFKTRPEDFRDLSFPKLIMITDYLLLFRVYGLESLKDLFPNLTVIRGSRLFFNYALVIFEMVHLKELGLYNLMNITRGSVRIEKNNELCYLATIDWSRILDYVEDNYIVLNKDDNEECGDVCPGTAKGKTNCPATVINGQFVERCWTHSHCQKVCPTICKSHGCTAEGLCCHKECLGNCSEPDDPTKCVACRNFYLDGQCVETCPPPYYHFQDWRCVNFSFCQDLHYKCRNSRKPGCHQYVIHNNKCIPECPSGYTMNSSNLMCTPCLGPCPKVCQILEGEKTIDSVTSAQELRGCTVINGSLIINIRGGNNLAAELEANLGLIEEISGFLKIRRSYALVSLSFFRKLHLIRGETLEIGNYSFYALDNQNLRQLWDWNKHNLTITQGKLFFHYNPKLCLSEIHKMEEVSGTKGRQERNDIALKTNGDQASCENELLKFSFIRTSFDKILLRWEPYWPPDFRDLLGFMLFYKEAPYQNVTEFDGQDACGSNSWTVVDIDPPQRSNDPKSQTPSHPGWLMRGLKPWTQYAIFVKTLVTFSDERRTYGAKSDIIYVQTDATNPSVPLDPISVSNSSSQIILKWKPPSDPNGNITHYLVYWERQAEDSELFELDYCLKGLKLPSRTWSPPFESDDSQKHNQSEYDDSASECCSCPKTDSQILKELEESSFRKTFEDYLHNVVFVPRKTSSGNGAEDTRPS
T1 sequence (P15127 764-1383 limits assumed): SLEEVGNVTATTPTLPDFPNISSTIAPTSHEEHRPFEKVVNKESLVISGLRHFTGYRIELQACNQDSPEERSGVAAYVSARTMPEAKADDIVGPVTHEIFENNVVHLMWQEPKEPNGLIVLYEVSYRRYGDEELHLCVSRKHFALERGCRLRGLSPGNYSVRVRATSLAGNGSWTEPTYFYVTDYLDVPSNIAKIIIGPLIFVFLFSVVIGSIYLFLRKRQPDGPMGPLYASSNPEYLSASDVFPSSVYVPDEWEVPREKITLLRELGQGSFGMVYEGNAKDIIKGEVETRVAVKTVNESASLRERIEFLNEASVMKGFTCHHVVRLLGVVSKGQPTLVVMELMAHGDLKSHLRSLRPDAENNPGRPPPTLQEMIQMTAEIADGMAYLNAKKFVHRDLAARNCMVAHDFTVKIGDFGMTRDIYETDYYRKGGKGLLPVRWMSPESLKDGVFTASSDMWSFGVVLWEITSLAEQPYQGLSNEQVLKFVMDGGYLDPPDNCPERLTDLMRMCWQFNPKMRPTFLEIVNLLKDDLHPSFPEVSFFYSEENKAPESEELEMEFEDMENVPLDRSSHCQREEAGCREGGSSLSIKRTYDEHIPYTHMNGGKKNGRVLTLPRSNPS
Method: The insulin receptor was immunoprecipitated by an antibody against the β subunit of the insulin receptor. The precipitated proteins were then detected on separate western blots by an anti-phosphotyrosine antibody and an anti-insulin receptor β subunit antibody, respectively. The ratio of phosphorylated and regular receptors was calculated after densitometry scan and compared among different treatments.
(§4) The tyrosine phosphorylation extent of insulin receptor was examined by precipitating insulin receptor with anti-insulin receptor antibody followed by blotting with anti-pTyr antibody on western blots.
(§5) Upon termination of the reaction, the extracellular medium was removed and cell lysates were prepared with a lysis buffer. The tyrosine phosphorylation of insulin receptor was assessed by immunoprecipitation of insulin receptor with a specific anti-insulin receptor antibody, followed by blotting the precipitated receptor with an anti-tyrosine antibody.

[8] = target: T1, insulin receptor; test: Insulin receptor tyrosine phosphorylation in cortical neuronal cultures; assay type: cell-based; parameters: endogenous in cells; host or cells: rat primary hippocampal and cortical neuronal cultures; settings: cortical neurons
Method: as §4, §5

[9] = target: T2, insulin receptor (Homo sapiens, UniProt P06213); test: Effect of insulin signaling blockers on insulin-stimulated insulin receptor phosphorylation; assay type: cell-based
From the text: These assays are validated via the use of control compounds such as insulin signaling and receptor antagonists and insulin sensitizers.

[10] = target: T2, insulin receptor; settings: cited from earlier work
[11] = target: T2, insulin receptor; test: ADDL breakdown by cells over expressing human insulin receptor; assay type: cell-based; parameters: expressed in transfected cells; settings: inhibition of insulin receptor
[12] = tested on: IRS1; test: IRS1 serine307 phosphorylation in hippocampal neuronal cultures; assay type: cell-based; settings: 150 nM ADDLs, 60 minutes
From the text: Equal amount of total proteins from soluble cell lysates from each condition was separated on SDS-PAGE and transferred to nitrocellulose membranes. The phosphorylation extent of IRS1 Ser307 was detected with an anti-IRS1 PSer307 antibody. Identical samples on a separate membrane were blotted with an anti-total amount of IRS1 (rIRS1). The immunoreactivities of pIRS1(Ser307) were normalized with those of rIRS1. Values from each experimental group were converted to percent control and analyzed with one-way ANOVA, ***p<0.0001; **p<0.01.

[13] = tested on: Akt; test: Akt ser473 phosphorylation in hippocampal neurons; assay type: cell-based; settings: 1 hour post-ADDL/INS treatment
From the text: as §1, §2

[14] = tested on: MAP kinase; test: Insulin-induced MAP kinase phosphorylation; assay type: cell-based; settings: ADDL treatment
From the text: Identified herein is a signaling loop in which molecular pathology of AD and type II diabetes can be interconnected.

[15] = target: T2, insulin receptor; test: Ligand blotting of ADDLs to precipitated insulin receptor; assay type: binding; parameters: expressed in transfected cells; settings: 100 nM ADDLs; receptors from cells with and without insulin treatment
From the text: The cell lysates were subjected to co-immunoprecipitation, in which a specific anti-ADDL antibody (20C2) was used to precipitated ADDLs and proteins that complexed with ADDLs. This was followed by detection of insulin receptor from precipitated proteins on a western blot. […] To test whether the ADDL-insulin receptor interaction is direct, the human insulin receptors from insulin receptor expressing cells with and without insulin treatment were precipitated with an anti-insulin receptor antibody.

[16] = target: T1, insulin receptor; test: Insulin receptor (IRα) immunofluorescence in mature hippocampal neurons after ADDL treatment; assay type: cell-based; parameters: endogenous in cells; host or cells: cultures of mature hippocampal neurons; settings: 100 nM ADDLs, 30 minutes
Method: ADDLs were added to cultures at 100 nM and incubated for 30 minutes to allow for complete binding. […] Insulin receptors, identified using antibodies against the outward-directed alpha sub-unit, also distributed in a punctate manner.
To investigate whether ADDLs cause IR impairment, changes in neuronal IR levels following ADDL treatment were analyzed. […] To detect neuronal surface IR, an antibody recognizing the alpha subunit of IR (IRα) localized on the extracellular membrane layer. Abundant IRα immunoreactivity was detected in cultured hippocampal neurons, which was particularly concentrated on the membrane of soma and dendrites. After treated with 100 nM ADDLs for 30 minutes, however, there was a drastic change in IRα immunostaining pattern with a substantial reduction of IRα from dendrites but an increase in the cell body. […] The increased cytosolic IRα immunoreactivity implicates internalization of the receptor. Loss of IRα occurred specifically to ADDL attacked dendrites. […] Similar to the above experiment, ADDLs were added to cultures at 100 nM and incubated for 30 minutes to allow for complete binding.
The down-regulation of IR is likely due to internalization the receptor by ADDLs.

[17] = target: T1, insulin receptor; test: Serine phosphorylation of insulin receptor in hippocampal neurons; assay type: cell-based; parameters: endogenous in cells; host or cells: rat primary hippocampal and cortical neuronal cultures; settings: 150 nM ADDLs, 60 minutes
Method: The cell lysates were subjected to immunoprecipitation using an anti-insulin receptor antibody. The precipitated insulin receptors were analyzed by western blot with an anti-phosphoserine antibody to detect the serine phosphorylation extent of insulin receptor (pSer-IR). The pSer-IR extent was normalized with the total amount of precipitated insulin receptor. Each condition was converted to percent control before analyzed one-way ANOVA, **p<0.01.

[18] = cells pretreated with inhibitor before ADDL and insulin

## C=C1[C@@H](O)[C@@H]2O[C@]3(CC[C@H](/C=C/[C@@H](C)[C@@H]4CC(C)=C[C@@]5(O[C@H](C[C@@](C)(O)C(=O)O)CC[C@H]5O)O4)O3)CC[C@H]2O[C@@H]1[C@@H](O)C[C@H](C)[C@H]1O[C@@]2(CCCCO2)CC[C@H]1C [okadaic acid]
[1]
  duration of insulin-induced increase in pAkt ser473: prolonged the insulin-increased pAkt ser473

## insulin
[2]; 100 nM ADDL with insulin, P<0.01
  total amount of ADDLs: significantly reduced
[2]; 100 nM ADDL, 100 nM insulin
  ADDL uptake (ADDL levels in cell lysates up, extracellular medium down): stimulated ADDL uptake
[3]; 100 nM ADDLs, immunoprecipitation with 6E10
  ADDL oligomers in the cell lysate fractions: increase of ADDL oligomers
[4]
  ADDL uptake into hippocampal neurons: stimulated a striking ADDL uptake into hippocampal neurons in a clear dose-response manner
[4]; hippocampal neurons
  aggregated ADDLs in the extracellular medium: reduced aggregated ADDLs in the extracellular medium in a dose-response manner
[5]; ADDLs/insulin for 4 hours
  cell viability (MTT): no apparent toxic effects
[6]; insulin 1 micromolar, 30 minutes before ADDLs
  ADDL binding and its effects: blocked
[6]; pre-incubation with 100 nM insulin
  prevention of ADDL binding to hippocampal neurons: ~40%
[6]; pre-incubation with 1 μM insulin
  prevention of ADDL binding to hippocampal neurons: ~70%
[7]
  tyrosine phosphorylation of the insulin receptor: marked increases in insulin receptor tyrosine phosphorylation
[7]; listed as Insulin
  tyrosine phosphorylation of the insulin receptor: stimulated an increase in tyrosine phosphorylation
[8]; 100 nM insulin
  insulin receptor tyrosine phosphorylation: marked increases in insulin receptor tyrosine phosphorylation

## CC(=O)OCOC(=O)CN(CC(=O)OCOC(C)=O)c1ccccc1OCCOc1ccccc1N(CC(=O)OCOC(C)=O)CC(=O)OCOC(C)=O [BAPTA-AM, 1,2-bis(o-aminophenoxy)ethane-N,N,N′,N′-tetraacetic acid tetra(acetoxymethyl)ester]
[7]; 100-150 nM ADDLs, neuronal depolarization and glutamate stimulation
  ADDL inhibition of insulin-stimulated IR tyrosine phosphorylation under chelation of intracellular Ca2+: could be rescued

## O.O=C([O-])c1ccccc1-c1c2cc(I)c(=O)c(I)c-2oc2c(I)c([O-])c(I)cc12.[Na+].[Na+] [erythrosin B]
[9]
  insulin-stimulated insulin receptor phosphorylation: significantly inhibited

## CN(C)C(=N)N=C(N)N [Metformin]
[10]
  tyrosine kinase activity of the insulin receptor: enhance the tyrosine kinase activity of the insulin receptor

## CC(C)(C)c1cc(C=C(C#N)C#N)cc(Br)c1O [AG1024, tyrphostin AG1024]
[2]; [18]
  ADDL aggregates in the extracellular medium: markedly higher amount of ADDL aggregates in the extracellular medium
  insulin-stimulated ADDL internalization: prevented
[3]; 100 nM synthetic ADDLs, 37° C., 30 minutes
  ADDLs in the extracellular medium: striking aggregation of ADDLS
[3]; inhibitor included prior to ADDL treatment
  insulin-induced ADDL uptake into cell lysate: prevented
[9]
  insulin-stimulated insulin receptor phosphorylation: significantly inhibited
[11]
  ADDLs in the extracellular medium: striking accumulation of ADDLs in the extracellular medium

## ADDLs: neurotoxic soluble oligomeric assemblies of Aβ 1-42, prepared from synthetic Aβ 1-42 peptide
[5]; ADDLs alone, varying treatment duration
  neuronal toxicity (MTT cell viability): cause neuronal toxicity in a treatment duration-dependent
[12]
  IRS-1 serine 307 phosphorylation: increase in serine phosphorylation of IRS-1
[13]
  insulin-induced pAkt Ser473: enhancement of the insulin-induced pAkt Ser473
[1]
  duration of insulin-induced increase in pAkt ser473: significantly prolonged
[14]
  insulin-induced MAP kinase phosphorylation: significantly inhibited
[15]
  binding of ADDL to insulin receptor (ligand blot): strong binding of ADDL to insulin receptor was detected only in the activated but not the control insulin receptor
[16]
  insulin receptor immunoreactivity in cell bodies vs ADDL-free cells: ~3 fold
[16]; P<0.01
  dendritic IRα fluorescent intensity: significant loss of IRα immunoreactivity
[16]; image analysis
  reduction of dendritic insulin receptor immunoreactivity vs ADDL-free cells: ~70%
[7]; ADDL treatment, hippocampal neuronal cultures
  amount of the insulin receptor: reduction in the amount of the insulin receptor
[7]
  insulin-stimulated insulin receptor tyrosine phosphorylation: significantly inhibited
  tyrosine phosphorylation of the insulin receptor: increase in tyrosine phosphorylation of the insulin receptor
[7]; listed as ADDL
  insulin-stimulated insulin receptor tyrosine phosphorylation: abolished
[7]; listed as soluble oligomeric Aβ peptide assemblies
  insulin-stimulated insulin receptor tyrosine phosphorylation: significant inhibition
[8]; ADDLs 50-150 nM with 100 nM insulin
  insulin-induced insulin receptor tyrosine phosphorylation: significantly inhibited
[17]
  serine phosphorylation of insulin receptor (pSer-IR): increase in serine phosphorylation of insulin receptor
